Experimental data published in patent publication US20160287564A1, “METHODS OF ADMINISTERING GLUTAMINASE INHIBITORS” (Calithera Biosciences, Inc., priority 2015, published 2016).
“Also recorded” adds a separate entry of the source.

Columns and labels:
[1] = test system: glutaminase; assay: Glutaminase activity in peripheral blood mononuclear cells (PBMCs) of treated patients; assay type: in vivo, human; details: PBMCs from three patients treated with 600, 800 and 1000 mg three times per day; 10-58% leukemic blast counts
Method: The compound was administered three times per day (“TID”) at doses ranging from 100 mg per dose to 1000 mg per dose (i.e., 300 mg to 3000 mg total compound per day).

[2] = Pharmacokinetics in cancer patients, dosing schedule of FIG. 6; assay type: in vivo, human
Method: FIG. 6 is a table that describes the dosing regimen for CB-839.
CB-839 was administered to cancer patients according to the dosing schedule in FIG. 6. The half-life of CB-839 is approximately 4 hours.

[3] = test system: acute leukemia; assay: Clinical outcomes in efficacy-evaluable subjects with acute leukemia
Method: (§1) The compound of formula III (CB-839) was administered, orally, to fifteen human subjects with acute leukemia for 22 days. The compound was administered three times per day (“TID”) at doses ranging from 100 mg per dose to 1000 mg per dose (i.e., 300 mg to 3000 mg total compound per day). Plasma levels of the compound were monitored on days 1, 15, and 22. Subjects received the compound in a fasted state on days 1 and 15 (e.g., without a meal as defined herein) and in a fed state on day 22 (e.g., with a meal as defined herein). Administration of the compound in a fasted state consisted of oral administration of a first dose 1 hour before breakfast, oral administration of a second dose at 3 PM, and oral administration of a third dose prior to bedtime.
(§2) Each subject from Example 1 who remained enrolled in the trial were administered 600 mg of the compound of formula III orally, twice a day (“BID”), with food, each day after day 22 of the trial (i.e., 1200 mg of the compound per day).

[4] = Safety: dose-limiting toxicity and treatment-related adverse events in Examples 1 and 2
Method: as §1, §2

[5] = Plasma pharmacokinetics after oral TID/BID dosing, fasted or fed, in human subjects with acute leukemia; details: 600 mg twice a day with food
Method: The compound was administered three times per day (“TID”) at doses ranging from 100 mg per dose to 1000 mg per dose (i.e., 300 mg to 3000 mg total compound per day). Plasma levels of the compound were monitored on days 1, 15, and 22. Subjects received the compound in a fasted state on days 1 and 15 (e.g., without a meal as defined herein) and in a fed state on day 22 (e.g., with a meal as defined herein). Administration of the compound in a fasted state consisted of oral administration of a first dose 1 hour before breakfast, oral administration of a second dose at 3 PM, and oral administration of a third dose prior to bedtime.
Each subject from Example 1 who remained enrolled in the trial were administered 600 mg of the compound of formula III orally, twice a day (“BID”), with food, each day after day 22 of the trial (i.e., 1200 mg of the compound per day). […] Pharmacokinetics data was compared for subjects receiving 600 mg of the compound three times per day in a fasted state (i.e., 1800 mg of the compound per day, without meals as defined herein) and subjects receiving 600 mg of the compound two times per day in a fed state (i.e., 1200 mg of the compound per day, with meals as defined herein).

[6] = BID Fed dosing regimen, FIG. 6-8
[7] = occurred in greater than 10% of subjects, fifteen subjects

In the case of `O=C(Cc1cccc(OC(F)(F)F)c1)Nc1ccc(CCCCc2nnc(NC(=O)Cc3ccccn3)s2)nn1` [CB-839], the “inhibition of glutaminase activity” value [1] is reported as > 94%, the “PK variability with BID Fed dosing regimen” value [2, 6] is reported as “PK variability is reduced” and the “exposure with BID Fed dosing regimen” value [2, 6] is reported as “consistent exposure; also recorded: target CB-839 concentrations are maintained”. For the same molecule, the exposure versus dose ([2]; cancer patients, dosing schedule of FIG. 6) was “Exposure generally increases with dose”, the half-life ([2]; human, in vivo, oral, cancer patients) was ~4 h and the complete response ([3]; after 6 cycles of dosing) was “One subject achieved a complete response in the bone marrow with incomplete recovery of peripheral counts”. The “stable disease for 4-10 cycles” value ([3]; of 15 efficacy-evaluable subjects across all dose levels, 1 cycle=21 days) was 5 (33%) subjects, the “average time remaining on the study drug” value ([3]; subjects with stable disease) was 134 days and the dose-limiting toxicity ([4]; Examples 1 and 2, all dose levels) was “No dose-limiting toxicity was identified”. The “increased bilirubin levels (treatment-related adverse event)” value [4, 7] was 2 subjects, the “increased transaminase levels (treatment-related adverse event)” value [4, 7] was 4 subjects and the “time in which Cmax was reached” value [5] was 2 to 6 h. The “plasma levels of the compound” value ([5]; all subjects) was “exceeded 450 nM”.
